Experimental data from patent US6452001B2, “Diazapane derivatives useful as antagonists of neurokinin 1 receptor and methods for their formation” (Hoffmann-La Roche Inc., priority 2000, dated 2002).
Counter-ions that a name gives are not always drawn.

Target: T1, human NK1 receptor (Homo sapiens, UniProt P25103)
T1 construct: expressed in transfected cells; host or cells: CHO cells infected using the Semliki virus expression system; membrane suspension
Experiment: NK1 receptor binding assay, [3H]substance P displacement
Conditions: affinity to the NK-1 receptor; human NK1 receptors in CHO cells, [3H]substance P 0.6 nM
Description: The affinity of test compounds for the NK1 receptor was evaluated at human NK1 receptors in CHO cells infected with the human NK1 receptor (using the Semliki virus expression system) and radiolabelled with [^3H]substance P (final concentration 0.6 nM). Binding assays were performed in HEPES buffer (50 mM, pH 7.4) containing BSA (0.04 %) leupeptin (8 μg/ml), MnCl2 (3 mM) and phosphoramidon (2 μM). Binding assays consisted of 250 μl of membrane suspension (1.25×10^5 cells/assay tube), […] of buffer of displacing agent and 125 μl of [^3H]substance P. Displacement curves were determined with at least seven concentrations of the compound. The assay tubes were incubated for 60 min at room temperature after which time the tube contents were rapidly filtered under vacuum through GF/C filters presoaked for 60 min with PEI (0.3 %) with 2×2 ml washed of HEPES buffer (50 mM, pH 7.4). The radioactivity retained on the filters was measured by scintillation counting. All assays were performed in triplicate in at least 2 separate experiments.

T1 sequence (P25103 whole entry): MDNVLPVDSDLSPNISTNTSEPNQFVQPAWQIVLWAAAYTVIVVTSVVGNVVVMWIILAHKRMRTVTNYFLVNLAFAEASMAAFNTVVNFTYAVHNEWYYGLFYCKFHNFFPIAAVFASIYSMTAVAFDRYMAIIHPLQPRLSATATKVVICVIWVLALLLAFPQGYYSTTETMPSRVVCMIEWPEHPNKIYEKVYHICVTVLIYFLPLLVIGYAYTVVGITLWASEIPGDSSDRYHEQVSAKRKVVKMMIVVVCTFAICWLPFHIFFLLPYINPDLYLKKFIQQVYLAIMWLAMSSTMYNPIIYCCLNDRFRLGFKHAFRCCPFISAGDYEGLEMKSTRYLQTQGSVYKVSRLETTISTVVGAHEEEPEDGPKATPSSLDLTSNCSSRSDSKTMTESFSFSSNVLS

Row | Structure (SMILES) | Ki [nM]
1 | COc1ccc2ccccc2c1CN1CCc2nncn2[C@@H](Cc2ccc(Cl)c(Cl)c2)C1=O [Example 19, (4S)-4-(3,4-Dichloro-benzyl)-6-(2-methoxy-naphthalen-1-yl-methyl)-7,8-dihydro-6H-1,2,3a,6-tetraaza-azulen-5-one] | 1.74
2 | Cc1ccc2ccccc2c1CN1CCC(=O)N[C@@H](Cc2ccc(Cl)c(Cl)c2)C1=O [Example 16, (3S)-3-(3,4-Dichloro-benzyl)-1-(2-methyl-naphthalen-1-yl-methyl)-[1,4]diazepane-2,5-dione] | 3.8
3 | CCOc1ccc2ccccc2c1CN1CCC(=O)NC(Cc2ccc(Cl)c(Cl)c2)C1=O (racemic) [Example 17, (RS)-3-(3,4-Dichloro-benzyl)-1-(2-ethoxy-naphthalen-1-yl-methyl)-[1,4]diazepane-2,5-dione] | 5.37
4 | COc1ccc2ccccc2c1CN1CCC(=O)N[C@@H](Cc2ccc(Cl)c(Cl)c2)C1=O [Example 15, (3S)-3-(3,4-Dichloro-benzyl)-1-(2-methoxy-naphthalen-1-yl-methyl)-[1,4]diazepane-2,5-dione] | 3.24

Other lines, results leading:

Row | Ki [nM] | Structure (SMILES)
5 | 2.45 | O=C1C(Cc2ccc(Cl)c(Cl)c2)n2cnnc2CCN1Cc1cc(C(F)(F)F)cc(C(F)(F)F)c1 (racemic) [Example 20, (RS)-6-(3,5-Bis-trifluoromethyl-benzyl)-4-(3,4-dichloro-benzyl)-7,8-dihydro-6H-1,2,3a,6-tetraaza-azulen-5-one]
6 | 4.37 | CN(C)Cc1nnc2n1C(Cc1ccc(Cl)c(Cl)c1)C(=O)N(Cc1cc(C(F)(F)F)cc(C(F)(F)F)c1)CC2 (racemic) [Example 23, (RS)-6-(3,5-Bis-trifluoromethyl-benzyl)-4-(3,4-dichloro-benzyl)-3-dimethylaminomethyl-7,8-dihydro-6H-1,2,3a,6-tetraaza-azulen-5-one]
7 | 7.08 | CCCN=C1CCN(Cc2cc(C(F)(F)F)cc(C(F)(F)F)c2)C(=O)C(Cc2ccc(Cl)c(Cl)c2)N1 (racemic) [Example 26, (RS)-1-(3,5-Bis-trifluoromethyl-benzyl)-3-(3,4-dichloro-benzyl)-5-propylimino-[1,4]diazepan-2-one hydrochloride]
8 | 3.89 | O=C1C(Cc2ccc(Cl)c(Cl)c2)n2c(CCN3CCOCC3)nnc2CCN1Cc1cc(C(F)(F)F)cc(C(F)(F)F)c1 (racemic) [Example 21, (RS)-6-(3,5-Bis-trifluoromethyl-benzyl)-4-(3,4-dichloro-benzyl)-3-(2-morpholin-4-yl-ethyl)-7,8-dihydro-6H-1,2,3a,6-tetraaza-azulen-5-one]
9 | 5.62 | CN1CCCCC1c1nnc2n1C(Cc1ccc(Cl)c(Cl)c1)C(=O)N(Cc1cc(C(F)(F)F)cc(C(F)(F)F)c1)CC2 (racemic) [Example 24, (RS)-6-(3,5-Bis-trifluoromethyl-benzyl)-4-(3,4-dichloro-benzyl)-3-(1-methyl-piperidin-2-yl)-7,8-dihydro-6H-1,2,3a,6-tetraaza-azulen-5-one]
